From patent US9918968B2, “Rapamycin analogs targeting proteasome function in the treatment of cancer” (THE BOARD OF REGENTS OF THE UNIVERSITY OF TEXAS SYSTEM, priority 2013, dated 2018)
Read-outs that look alike come from different tables or passages of the source.

Legend:
[1] = system: T1, human 20S proteasome, ChT-L peptidase; assay: ChT-L peptidase activity of purified human 20S proteasome (Suc-LLVY-MCA); format: biochemical
T1 construct: purchased Enzo LifeSciences
Procedure: Human purified proteasome complexes were purchased from Enzo LifeSciences or Boston Biochemicals (19S complex). BODIPY-casein (Invitrogen/Molecular Probes) was used as a model protein substrate, with increasing fluorescence of BODIPY labeled peptide products of degradation monitored for up to 8 hours at 37° C. The peptidase activity of the enzyme was measured as arbitrary intensity units of the released fluorescent group 7-amino-4-methylcoumarin (AMC) from peptide substrates, as described. […] Proteasome substrates, rapamycin, its derivatives, and competing peptides were stocked in DMSO and diluted 100-fold in the reaction mixtures. The Rpt5 and PA200 C-terminal peptides were synthesized in the Departmental Peptide Synthesis Core using the standard SPPS chemistry. To activate the latent 20S proteasome, 0.005% (final concentration) of sodium dodecyl sulfate (SDS) was used. […] The fluorescence of products was monitored every 2 minutes with a Fluoroskan Ascent plate reader. Reaction rates were calculated from smoothed linear segment of kinetic curves using OriginPro 8.6 (OriginLabs, Northampton, Mass.). For the determination of an inhibition type, at least six distinct substrate concentrations and two inhibitor concentrations were used. The kinetic parameters of inhibition were analyzed in terms of the Michaelis-Menten formalism using the enzyme kinetic module of SigmaPlot v.12 (Systat Software, Inc, San Jose, Calif.) to perform the respective calculations. […]
The in vitro assay for testing the ChT-L peptidase activity of the purified human 20S proteasome was performed as described above.

RPMI 8226 myeloma cells = assay: Live/dead cell count, RPMI 8226 myeloma cells; format: cell-based, human; conditions: 5 nM, 48 hrs
Procedure: (§1) Culture Collection; ATCC) were cultured according to ATCC specifications: HeLa.S3 cervical adenocarcinoma, MCF7 breast adenocarcinoma, MDA-MB-231 breast adenocarcinoma (representing triple negative breast cancer), and RPMI 8226 myeloma. The cells were grown in 24 or 12-well cell culture plates. When the cells reached about 60% confluency (surface-growing HeLa.S3,MCF7 and MDA-MB-231) or a density of about 7×10^5 (suspension-growing RPMI 8226), the inhibitors dissolved in DMSO or the solvent (DMSO) diluted in respective culture medium were added and the cells were further cultured for additional 48 hours. […] The final concentration of the solvent was 1% (vol/vol). The number of live and dead cells after the treatment was approximated with calcein AM and ethidium homodimer (LiveDead test, Invitrogen) according to manufacturer's protocol, or by a Trypan Blue exclusion assay. In short, the cells after the treatment were washed three times with PBS and overlaid (surface-growing) or mixed (suspension-growing) with 4 microM calcein AM and 2 microM ethidium homodimer in PBS. Fluorescence of calcein and DNA-bound ethidium homodimer was measured with Fluoroskan Ascent plate reader, at 485 nm (excitation)/538 nm (emission) and 530 nm/619 nm, respectively. The cell counts were approximated using standard curves of live and digitonin-killed cells prepared for each strain. Alternatively, after cell treatment the medium was removed, the surface growing cells were overlaid with Trypan Blue solution, and the colorless (live) and blue-colored (dead) cells were counted under the inverted microscope.

[2] = system: HeLa.S3 cervical carcinoma cells; assay: Live/dead cell count, HeLa.S3 cells; format: cell-based, human; conditions: 48 hrs
Procedure: as §1

[3] = system: MCF7 breast carcinoma cells; assay: Live/dead cell count, MCF7 cells; format: cell-based, human; conditions: 100 nM bortezomib
Procedure: as §1, with “In short, the cells after the treatment were washed three times with PBS and overlaid (surface-growing) or mixed (suspension-growing) with 4 microM calcein AM and 2 microM ethidium homodimer in PBS.” left out, “The cell counts were approximated using standard curves of live and digitonin-killed cells prepared for each strain.” left out

[4] = system: MDA-MB-231 (triple-negative breast cancer) cells; assay: Viability/growth of MDA-MB-231 cells; format: cell-based, human; conditions: Homo sapiens, MDA-MB-231; 24 hours, drug alone; read-out: EC50 (concentration required to exclude 50% of cells)
Procedure: The cells were grown in 24 or 12-well cell culture plates. […] The final concentration of the solvent was 1% (vol/vol). The number of live and dead cells after the treatment was approximated with calcein AM and ethidium homodimer (LiveDead test, Invitrogen) according to manufacturer's protocol, or by a Trypan Blue exclusion assay. In short, the cells after the treatment were washed three times with PBS and overlaid (surface-growing) or mixed (suspension-growing) with 4 microM calcein AM and 2 microM ethidium homodimer in PBS. […] The cell counts were approximated using standard curves of live and digitonin-killed cells prepared for each strain. Alternatively, after cell treatment the medium was removed, the surface growing cells were overlaid with Trypan Blue solution, and the colorless (live) and blue-colored (dead) cells were counted under the inverted microscope.

transplanted tumor = conditions: cited from earlier work; for proteasome inhibition in brain tissue: any time point
[5] = target: chymotrypsin-like proteasome activity (Homo sapiens, UniProt P28074); conditions: read-out: IC50, chymotrypsin-like proteasome inhibition; cited from earlier work
[6] = system: A2780 ovarian cancer cells; conditions: read-out: IC50, proliferation; cited from earlier work
PC3 prostate cancer = conditions: read-out: IC50, proliferation; cited from earlier work
H460 = conditions: read-out: IC50, proliferation; cited from earlier work
LoVo colon cancer = conditions: read-out: IC50, proliferation; cited from earlier work
[7] = system: RPMI8226 multiple myeloma cancer; conditions: read-out: IC50, proliferation; cited from earlier work
[8] = system: HS-Sultan anaplastic non-Hodgkin lymphoma; conditions: read-out: IC50, proliferation; cited from earlier work
[9] = system: MM xenograft tumors (LAGκ-1A); conditions: 14 d, cited from earlier work

CC(C)C[C@H](NC(=O)[C@H](Cc1ccccc1)NC(=O)c1cnccn1)B(O)O [bortezomib]
remaining ChT-L activity ([1]; 5 nM BZ alone): 83%
remaining ChT-L activity ([1]; 50 nM bortezomib alone): 68%
dead cells (RPMI 8226 myeloma cells): 18%
remaining live cells (RPMI 8226 myeloma cells; 100% = live cells in DMSO control): 10%
dead cells, of total cell count ([2]; up to 100 nM bortezomib): up to 16%
changes in cell proliferation ([2]; up to 100 nM): did not induce significant changes
live cell count, of the control [3]: about 53%
EC50 [4]: 745 nM
proteasome inhibition in brain tissue (transplanted tumor): No proteasome inhibition is detected
incidence of CR (complete tumor regression) (transplanted tumor; at MTD of 1.2 mg/kg intravenously): 50%
maximally tolerated dose (MTD) (transplanted tumor; intravenously): 1.2 mg/kg

CC(C)C[C@H](NC(=O)[C@@H](NC(=O)c1cccc(-c2ccccc2)n1)[C@@H](C)O)B(O)O [Delanzomib]
IC50 [5]: 3.8 nM
IC50 [6]: 13.7 nM
IC50 (PC3 prostate cancer): 22.2 nM
IC50 (H460): 34.2 nM
IC50 (LoVo colon cancer): 11.3 nM
IC50 [7]: 5.6 nM
IC50 [8]: 8.2 nM
proteasome inhibition in brain tissue (transplanted tumor): No proteasome inhibition is detected
maximum apoptotic signal versus bortezomib (transplanted tumor; caspase-3 and 7 activity in tumor, equiactive doses): 2.5 fold
tumors smaller than control ([9]; twice weekly 3 mg/kg i.v.): approximately 8 times
tumors smaller than control ([9]; twice weekly 10 mg/kg orally): ~12 times
